What all share (type): cell-based
One assay addresses human OTR (Homo sapiens, UniProt P30559). Kind of assay: Inhibition activity on human OTR (Fluo-4 calcium assay, HEK293/human OTR stably transfected cells). The note with it: oxytocin 3 nM. As to the method: The inhibition effect of the compounds of the present invention on the activity of human OTR protein expressed in HEK293/human OTR stably transfected cells was determined by the following experimental method:
The pcDNA3.1-hOTR plasmid was transferred into HEK293 cells with the Lipofectamine® 3000 transfection reagent; G418 was added on the next day to screen, and monoclonal cell lines were selected.
(§1) HEK293/human OTR stably transfected cells were inoculated in a 96-well plate with an inoculation density of 25,000 cells/well one day in advance. On the next day, a loading buffer containing Fluo-4 dye was formulated using the reagents in the Fluo-4 NW calcium assay kit, and the culture medium was then removed; 100 μl of the loading buffer containing Fluo-4 dye were added to each well, and the plate was incubated at 37° C. for 30 minutes. After that, the plate was moved to room temperature and equilibrated for 10 minutes. The compounds were formulated at 10^6, 10^5, 10^4, 10^3, 10^2 and 10^1 nM. 1 μl of the compounds in each concentration was added to each well, and the plate was incubated at room temperature for 10 minutes. 50 μl of oxytocin polypeptide (3 nM) were automatically added by the machine, and the values were immediately detected at 494/516 nM by the flexstation 3 microplate reader. IC50 values of the compounds were calculated by Graphpad prism software using fluorescence signals corresponding to different concentrations.
The inhibition activity of the compounds of the present invention on human OTR was determined by the above test, and the obtained IC50 values are shown in Table 1.

The next assay has as its target human V1aR (Homo sapiens (Human), UniProt P37288). Kind of assay: Inhibition activity on human V1aR (Fluo-4 calcium assay, HEK293/human V1aR stably transfected cells). The note with it: vasopressin 3 nM. As to the method: The inhibition effect of the compounds of the present invention on the activity of human V1 aR protein expressed in HEK293/human V1aR stably transfected cells was determined by the following experimental method:
The pcDNA3.1-V1aR plasmid was transferred into HEK293 cells with the Lipofectamine® 3000 transfection reagent; G418 was added on the next day to screen, and monoclonal cell lines were selected.
as §1, with “V1aR” for “OTR”, “vasopressin” for “oxytocin”
The inhibition activity of the compounds of the present invention on human V1aR was determined by the above test, and the obtained IC50 values are shown in Table 2.

Another assay deals with human V1bR (Homo sapiens, UniProt P47901). Kind of assay: Inhibition activity on human V1bR (Fluo-4 calcium assay, HEK293/human V1bR pool cells). The conditions noted are these: vasopressin 3 nM. As to the method:
The inhibition effect of the compounds of the present invention on the activity of human V1bR protein expressed in HEK293/human V1bR cells was determined by the following experimental method:
The pcDNA3.1-V1bR plasmid was transferred into HEK293 cells with the Lipofectamine® 3000 transfection reagent; G418 was added on the next day, and the HEK293/human V1bR pool cell lines were obtained.
as §1, with “HEK293/human V1bR pool” for “HEK293/human OTR stably transfected”, “formulated into” for “formulated at”, “of vasopressin” for “of oxytocin”
The inhibition activity of the compounds of the present invention on human V1bR was determined by the above test, and the obtained IC50 values are shown in Table 3.

Another assay addresses human V2R (Homo sapiens (Human), UniProt P30518). Kind of assay: Inhibition activity on human V2R (cAMP HTRF assay, HEK293/human V2R pool cells). The note with it: vasopressin. As to the method:
The inhibition effect of the compounds of the present invention on the activity of human V2R protein expressed in HEK293/human V2R cells was determined by the following experimental method:
The pcDNA3.1-V2R plasmid was transferred into HEK293 cells with the Lipofectamine® 3000 transfection reagent; G418 was added on the next day, and the HEK293/human V2R pool cell lines were obtained.
HEK293/human V2R pool cells were dissociated with the cell dissociation solution (enzyme-free), thereby dissociating the cells from the cell culture dish into individual cells. Then the cell solution was blown well, and centrifuged to remove the supernatant. The cells were resuspended in the test buffer 1 (1×HBSS+20 mM HEPES+0.1% BSA) and counted. The cell density was adjusted to 1250 cells/5 μl, i.e., 2.5*10^5/ml.
The compounds were formulated into a series of concentrations of 20 mM, 6.67 mM, 2.22 mM, 0.74 mM, 0.25 mM, 0.08 mM, 27.4 μM, 9.14 μM, 3.05 μM, 1.02 μM, 0.34 μM and 0 μM (DMSO) with pure DMSO. The compounds were then diluted into a 4-fold working concentration solution with the test buffer 2 (test buffer 1+1 mM IBMX).
Agonist: 460 μM vasopressin was used as the mother liquor, which was formulated at 2 μM with DMSO, and then diluted to 0.5 nM with the test buffer 2.
Standards: The first point was 20 μl of a stock solution (2848 nM), which was diluted successively to a total of eleven concentrations in a 4-fold concentration gradient with the test buffer 1 from the second point.
1. The well-mixed cells were added to a 384-well plate (5 μl/well) without changing the tip.
2. The test compounds and positive compound formulated were added (2.5 μl/well), and the tips were changed.
3. The plate was centrifuged at 1000 rpm for 1 min, shaken for 30 sec to mix well, and incubated at room temperature for 30 min.
4. The standard curve wells were added with the test buffer 2 (5 μl/well).
5. The formulated agonist was added (2.5 μl/well), and the tips were changed; the plate was centrifuged at 1000 rpm for 1 min, shaken for 30 sec to mix well, and incubated at room temperature for 30 min.
6. cAMP-d2 (a component in the cAMP dynamic 2 kit) and Anti-cAMP-Eu-Cryptate (a component in the cAMP dynamic 2 kit) were formulated in the dark, which were then mixed well with cAMP lysate (a component in the cAMP dynamic 2 kit) in a ratio of 1:4. Each well was added with the formulated cAMP-d2 solution (5 μl/well), followed by addition of Anti-cAMP-Eu-Cryptate (5 μl/well). The plate was shaken for 30 sec to mix well, and incubated in the dark at room temperature for 1 h.
The HTRF Signals were Read by the PheraStar Multi-Function Microplate Reader.
The data in this test was processed using the data processing software Graphpad Prism.
The inhibition activity of the compounds of the present invention on human V2R was determined by the above test, and the IC50 values obtained are shown in Table 4.
A general note: TR-FRET usually uses a lanthanide donor and a delayed reading to cut background.

One may read the IC50 as the point on the concentration scale where inhibition reaches its midpoint.

human V2R, sequence (P30518 whole entry): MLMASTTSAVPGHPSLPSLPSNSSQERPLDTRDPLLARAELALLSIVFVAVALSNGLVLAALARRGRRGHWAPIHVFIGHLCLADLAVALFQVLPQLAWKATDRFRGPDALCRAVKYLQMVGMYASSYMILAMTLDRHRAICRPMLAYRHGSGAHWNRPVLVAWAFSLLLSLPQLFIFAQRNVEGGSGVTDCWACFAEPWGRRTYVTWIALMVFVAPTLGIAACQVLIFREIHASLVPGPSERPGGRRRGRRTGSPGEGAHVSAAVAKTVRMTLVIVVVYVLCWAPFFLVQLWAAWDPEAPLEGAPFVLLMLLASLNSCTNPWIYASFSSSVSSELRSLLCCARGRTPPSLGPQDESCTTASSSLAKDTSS
human V1aR, sequence (P37288 whole entry): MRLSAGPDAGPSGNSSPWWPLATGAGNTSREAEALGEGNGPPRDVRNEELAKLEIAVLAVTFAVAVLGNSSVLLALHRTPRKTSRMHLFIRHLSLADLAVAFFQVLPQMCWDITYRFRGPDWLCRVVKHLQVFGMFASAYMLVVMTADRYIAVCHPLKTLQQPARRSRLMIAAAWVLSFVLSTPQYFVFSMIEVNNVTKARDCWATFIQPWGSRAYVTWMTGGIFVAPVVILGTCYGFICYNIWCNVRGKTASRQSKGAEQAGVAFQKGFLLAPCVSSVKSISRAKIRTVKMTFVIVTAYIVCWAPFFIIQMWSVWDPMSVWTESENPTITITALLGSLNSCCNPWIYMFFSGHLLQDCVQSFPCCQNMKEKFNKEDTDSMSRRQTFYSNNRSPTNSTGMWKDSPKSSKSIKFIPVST

In the case of `COCc1nnc(N2CC(c3csc4cc(F)ccc34)C2)n1-c1ccc(OC)nc1` [Example 9, 5-(3-(3-(6-Fluorobenzo[b]thiophen-3-yl)azetidin-1-yl)-5-(methoxymethyl)-4H-1,2,4-triazol-4-yl)-2-methoxypyridine], the IC50 at human OTR was 0.04 µM; on human V1aR, 1.2 µM; on human V1bR, 42.7 µM; against human V2R, 12.5 µM.

As for `COCc1nnc(N2CC(n3cc(Cl)c4cc(F)ccc43)C2)n1-c1ccc(OC)nc1` [Example 10, 3-Chloro-5-fluoro-1-(1-(5-(methoxymethyl)-4-(6-methoxypyridin-3-yl)-4H-1,2,4-triazol-3-yl)azetidin-3-yl)-1H-indole], the IC50 on human OTR was 0.091 µM; on human V1aR, 5.7 µM; on human V1bR it was 12.4 µM; against human V2R it was 20.7 µM.

In the case of `COCc1nnc(N2CC(c3cn(C)c4cc(F)ccc34)C2)n1-c1ccc(OC)nc1` [Example 14, 6-Fluoro-3-(1-(5-(methoxymethyl)-4-(6-methoxypyridin-3-yl)-4H-1,2,4-triazol-3-yl)azetidin-3-yl)-1-methyl-1H-indole], the IC50 on human OTR stood at 0.13 µM; at human V1aR it was 10.9 µM; on human V1bR, 25.8 µM; at human V2R, 11.8 µM.

Regarding `COCc1nnc(N2CC(C3CCOc4cc(F)ccc43)C2)n1-c1ccc(OC)nc1` (centres unmarked) [Example 21, 5-(3-(3-(7-Fluorobenzodihydropyran-4-yl)azetidin-1-yl)-5-(methoxymethyl)-4H-1,2,4-triazol-4-yl)-2-methoxypyridine], the IC50 on human OTR amounted to 0.025 µM; at human V1aR, 2.7 µM; on human V1bR, 38.8 µM; against human V2R, 17.3 µM.

For the compound `COCc1nnc(N2CC(N3CCOc4cc(F)ccc43)C2)n1-c1ccc(OC)nc1` [Example 24, 7-Fluoro-4-(1-(5-(methoxymethyl)-4-(6-methoxypyridin-3-yl)-4H-1,2,4-triazol-3-yl)azetidin-3-yl)-3,4-dihydro-2H-benzo[b][1,4]oxazine], the IC50 at human OTR was 0.1 µM; at human V1aR it was 10.7 µM; on human V1bR, 44.1 µM; on human V2R, 67.2 µM.

Regarding `CCOCc1nnc(N2CC(N3CCCc4cc(F)ccc43)C2)n1-c1ccc(OC)nc1` [Example 26, 1-(1-(5-(Ethoxymethyl)-4-(6-methoxypyridin-3-yl)-4H-1,2,4-triazol-3-yl)azetidin-3-yl)-6-fluoro-1,2,3,4-tetrahydroquinoline], the figures for the IC50 on human OTR, on human V1bR and at human V2R were 0.007 µM, 61 µM and 1.4 µM, respectively.

Consider `CCOCc1nnc(N2CC(N3CCCc4cc(F)ccc43)C2)n1-c1ccc2c(c1)OCO2` [Example 27, 1-(1-(4-(Benzo[d][1,3]dioxolan-5-yl)-5-(ethoxymethyl)-4H-1,2,4-triazol-3-yl)azetidin-3-yl)-6-fluoro-1,2,3,4-tetrahydroquinoline], for which the IC50 at human OTR was 0.008 µM; at human V1bR, 13.9 µM; against human V2R it was 9.1 µM.

Consider `COc1ccc(-n2c(C)nnc2N2CC(N3CCCc4cc(F)ccc43)C2)cn1` [Example 29, 6-Fluoro-1-(1-(4-(6-methoxypyridin-3-yl)-5-methyl-4H-1,2,4-triazol-3-yl)azetidin-3-yl)-1,2,3,4-tetrahydroquinoline], for which the IC50 on human OTR is 0.064 µM; on human V1aR, 6.2 µM; on human V1bR it was 95.1 µM; on human V2R, 12.1 µM.

With `COCc1nnc(N2CC(N3CCCc4cc(F)ccc43)C2)n1-c1ccc(OC)nc1` [Example 30, 6-Fluoro-1-(1-(5-(methoxymethyl)-4-(6-methoxypyridin-3-yl)-4H-1,2,4-triazol-3-yl)azetidin-3-yl)-1,2,3,4-tetrahydroquinoline], the IC50 was found to be 0.004 µM on human OTR, 8.5 µM on human V1aR, 20.7 µM on human V1bR and 6.7 µM against human V2R.

On to `CCOCc1nnc(N2CC(N3CCOc4cc(F)ccc43)C2)n1-c1ccc(OC)nc1` [Example 31, 4-(1-(5-(Ethoxymethyl)-4-(6-methoxypyridin-3-yl)-4H-1,2,4-triazol-3-yl)azetidin-3-yl)-7-fluoro-3,4-dihydro-2H-benzo[b][1,4]oxazine], for which the IC50 was 0.079 µM at human OTR, 3.5 µM at human V1aR, 54.5 µM on human V1bR and 5.8 µM at human V2R.

These data come from patent US10889569B2, “Condensed ring group azacyclobutyl triazole derivative, preparation method therefor and use thereof in medicine” (Jiangsu Hengrui Medicine Co., Ltd., priority 2016, dated 2021).
